In patent US20060281686A1, “Aza-peptides” (priority 2002, published 2006):
*1 amine or outer side, *2 acyl side, *3 side chain or, on linkers, in order; H or OH if unused. Where a SMILES comes first, the peptide text is derived from it. [ ]: non-standard residue; d: D form. azaPhe = O=C(N(Cc1ccccc1)N[*:1])[*:2]; azaPro = O=C(N1CCCN1[*:1])[*:2]

How the values were obtained:
[1] = In vitro peptide stability in human plasma; assay type: in vitro ADME; conditions: after 24 h incubation at 37° C. in fresh human plasma; HPLC peak area vs sample incubated in PBS; read-out: % of intact peptide in human plasma
Procedure: (§1) Peptides were prepared as a 1 μg/μl solution in water. 20 μl of the peptide solution was diluted in 80 μl of fresh human plasma or 10% rat brain homogenate (prepared in PBS). The resulting solution was incubated at 37° C. for different times and the reaction was stopped by adding a complete cocktail of protease inhibitors. The bulk of plasma and brain proteins (but none of the peptide) were precipitated in cold methanol (mix/MeOH, 4/5, v/v) during one hour at −20° C. The precipitated proteins were pelleted by centrifugation (10000 g, 10 min, 4° C.). The supernatant, containing the peptide, was concentrated 5 times under vacuum and separated by reverse-phase HPLC. The area of the peak corresponding to the intact peptide was measured and compared with an equivalent sample incubated in PBS. The results are listed in Table 1 as percentage of intact peptide after 24 h incubation at 37° C. in human plasma and in rat brain homogenate. The values compare favourably with those obtained for the reference compound of Example 8.

[2] = In vitro peptide stability in rat brain homogenate; assay type: in vitro ADME; conditions: after 24 h incubation at 37° C. in 10% rat brain homogenate; HPLC peak area vs sample incubated in PBS; read-out: % of intact peptide in rat brain homogenate
Procedure: as §1

Row | remaining at 24 h, 0.2 μg/μl [1] [%] | remaining at 24 h, 0.2 μg/μl [2] [%] | Compound
1 | 93 | 80 | CC(=O)N[C@@H](CC(C)C)C(=O)N1CCCN1C(=O)N[C@@H](Cc1ccccc1)C(=O)N[C@@H](Cc1ccccc1)C(=O)N[C@@H](CC(=O)O)C(N)=O [Example 6, Ac-L-P^a-F-F-D-NH2] (Ac-L[azaPro]FFD-NH2)
2 | 74 | 2 | Ac-LPFFD-NH2 [Example 8, reference compound]

Row | Compound | remaining at 24 h, 0.2 μg/μl [1] [%] | remaining at 24 h, 0.2 μg/μl [2] [%]
3 | CC(=O)N[C@@H](CC(C)C)C(=O)N1CCC[C@H]1C(=O)NN(Cc1ccccc1)C(=O)N[C@@H](Cc1ccccc1)C(=O)N[C@@H](CC(=O)O)C(N)=O [Example 5, Ac-L-P-F^a-F-D-NH2] (Ac-LP[azaPhe]FD-NH2) | 93 | 71
